Laboratory results: ChEMBL document CHEMBL1201862, “PubChem BioAssay data set” (2004)
The source made the active and inactive calls.

Tests used:
[1] = target: T1, Short transient receptor potential channel 4 (Mus musculus, UniProt Q9QUQ5); experiment: calcium entry via TRPC4 opening agents – cell-based, HEK293 TRPC4/mu-opioid, Fluo-4 calcium, dose response (AID 434937); type: functional
T1 sequence (Q9QUQ5 whole entry): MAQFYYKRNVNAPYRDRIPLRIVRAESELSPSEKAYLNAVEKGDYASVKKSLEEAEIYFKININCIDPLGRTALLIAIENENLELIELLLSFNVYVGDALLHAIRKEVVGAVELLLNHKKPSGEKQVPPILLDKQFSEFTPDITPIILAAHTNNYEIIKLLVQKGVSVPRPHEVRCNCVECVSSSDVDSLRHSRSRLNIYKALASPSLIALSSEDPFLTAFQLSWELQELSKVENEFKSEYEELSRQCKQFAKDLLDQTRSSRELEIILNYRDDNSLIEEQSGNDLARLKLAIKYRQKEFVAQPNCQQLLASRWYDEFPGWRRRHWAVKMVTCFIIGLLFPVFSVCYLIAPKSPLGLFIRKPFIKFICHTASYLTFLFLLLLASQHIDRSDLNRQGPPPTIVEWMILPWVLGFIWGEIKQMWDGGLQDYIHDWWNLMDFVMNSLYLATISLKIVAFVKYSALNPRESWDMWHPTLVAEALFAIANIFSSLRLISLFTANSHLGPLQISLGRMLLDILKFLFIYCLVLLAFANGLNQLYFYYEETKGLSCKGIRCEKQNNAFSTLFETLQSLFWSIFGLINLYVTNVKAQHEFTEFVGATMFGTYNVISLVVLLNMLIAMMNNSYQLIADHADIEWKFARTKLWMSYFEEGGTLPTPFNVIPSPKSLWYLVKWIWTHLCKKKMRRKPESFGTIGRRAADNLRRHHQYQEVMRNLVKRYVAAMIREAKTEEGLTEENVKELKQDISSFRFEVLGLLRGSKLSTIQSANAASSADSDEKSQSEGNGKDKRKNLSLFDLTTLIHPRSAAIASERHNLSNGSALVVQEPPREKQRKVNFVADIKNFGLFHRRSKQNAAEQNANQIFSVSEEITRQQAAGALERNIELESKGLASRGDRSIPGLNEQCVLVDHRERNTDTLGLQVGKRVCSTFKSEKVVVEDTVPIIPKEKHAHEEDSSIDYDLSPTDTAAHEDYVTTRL

[2] = HEK-293T viability loss after treatment – luminescence, T-cell screen hits, cytotoxicity control for TCR NF-kB inhibitor project, dose response (AID 489026); type: functional, cell-based;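 note: cells exposed to compound about 14 hours before the viability readout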
[3] = target: Beta-galactosidase (Escherichia coli, UniProt Q8VNN2); experiment: Dose response counterscreen for EBI2 assay utilizing the enzyme, b-galactosidase.; type: functional
[4] = target: T2, Coagulation factor XII (Homo sapiens, UniProt P00748); type: functional;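 note: activated factor XIIa alpha cleaving a fluorogenic AMC peptide substrate; inhibitor potency from loss of enzyme activity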
T2 sequence (P00748 whole entry): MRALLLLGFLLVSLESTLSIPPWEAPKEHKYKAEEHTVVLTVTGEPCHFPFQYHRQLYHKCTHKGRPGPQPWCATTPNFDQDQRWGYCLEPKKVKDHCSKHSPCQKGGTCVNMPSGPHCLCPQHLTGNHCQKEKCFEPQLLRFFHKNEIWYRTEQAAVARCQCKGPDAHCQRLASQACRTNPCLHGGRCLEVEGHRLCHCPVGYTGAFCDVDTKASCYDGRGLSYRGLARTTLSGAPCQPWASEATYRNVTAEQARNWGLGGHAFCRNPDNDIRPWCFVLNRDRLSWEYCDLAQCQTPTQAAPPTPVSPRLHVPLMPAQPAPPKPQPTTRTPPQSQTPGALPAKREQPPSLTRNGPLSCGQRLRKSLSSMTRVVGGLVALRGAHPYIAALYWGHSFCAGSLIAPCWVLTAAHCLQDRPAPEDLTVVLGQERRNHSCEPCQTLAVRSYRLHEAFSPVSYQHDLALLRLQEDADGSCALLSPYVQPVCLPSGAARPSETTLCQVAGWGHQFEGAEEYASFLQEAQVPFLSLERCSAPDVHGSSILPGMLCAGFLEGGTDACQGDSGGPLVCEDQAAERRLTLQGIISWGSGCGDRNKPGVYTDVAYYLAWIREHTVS

[5] = viability loss in HeLa cells – cytotoxicity control for MgcRacGAP inhibitor project, dose response (AID 624300); type: functional
[6] = target: T3, X-box-binding protein 1 (Homo sapiens, UniProt P17861); type: functional, Cricetulus griseus;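 note: confirmatory dose-response counter-screen serving a CHOP assay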
T3 sequence (P17861 whole entry): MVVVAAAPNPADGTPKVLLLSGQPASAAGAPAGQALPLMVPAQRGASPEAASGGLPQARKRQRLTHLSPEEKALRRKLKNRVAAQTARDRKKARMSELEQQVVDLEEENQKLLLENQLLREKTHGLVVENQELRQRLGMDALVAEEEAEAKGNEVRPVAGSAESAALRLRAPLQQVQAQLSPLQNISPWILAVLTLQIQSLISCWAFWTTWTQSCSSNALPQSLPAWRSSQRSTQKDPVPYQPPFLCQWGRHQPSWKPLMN

[7] = target: Heat shock protein HSP 90-alpha (Homo sapiens, UniProt P07900); type: functional, organism-based
[8] = target: T4, Mannose-6-phosphate isomerase (Homo sapiens, UniProt P34949); experiment: phosphomannose isomerase inhibition – biochemical, fluorescence intensity, confirmation (AID 1535)
T4 sequence (P34949 whole entry): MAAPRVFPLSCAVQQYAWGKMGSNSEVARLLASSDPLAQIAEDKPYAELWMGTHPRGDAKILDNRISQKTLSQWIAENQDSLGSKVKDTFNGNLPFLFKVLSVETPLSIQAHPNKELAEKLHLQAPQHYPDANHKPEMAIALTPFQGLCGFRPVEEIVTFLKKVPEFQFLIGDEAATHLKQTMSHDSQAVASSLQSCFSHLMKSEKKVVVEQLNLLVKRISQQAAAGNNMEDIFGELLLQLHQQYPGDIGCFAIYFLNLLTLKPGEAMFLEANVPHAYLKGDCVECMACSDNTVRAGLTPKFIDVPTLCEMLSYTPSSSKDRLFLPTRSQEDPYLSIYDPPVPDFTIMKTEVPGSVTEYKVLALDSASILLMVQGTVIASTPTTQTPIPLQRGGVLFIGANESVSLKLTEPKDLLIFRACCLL

[9] = target: T5, Voltage-gated N-type calcium channel alpha-1B subunit/Amyloid beta A4 precursor protein-binding family A member 1 (Homo sapiens, UniProt Q00975+Q02410); type: protein assay
[10] = target: Eukaryotic translation initiation factor 4E (Mus musculus, UniProt P63073); experiment: blockers of eIF4G binding by eIF4E – biochemical, TR-FRET, dose response (AID 855); type: functional;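 note: potency for disrupting eIF4E binding to eIF4GI seen as loss of FRET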
[11] = target: T4, Mannose-6-phosphate isomerase; experiment: MPI inhibition at elevated mannose 6-phosphate – biochemical, fluorescence intensity, high mannose 6-phosphate, primary screen (AID 1220)
[12] = target: T6, Rac GTPase-activating protein 1 (Homo sapiens, UniProt Q9H0H5); experiment: blockers of MgcRacGAP-driven Rac1 GTP hydrolysis – biochemical, ADP Hunter fluorescence, primary and confirmatory, confirmation (AID 624330); type: functional
T6 sequence (Q9H0H5 whole entry): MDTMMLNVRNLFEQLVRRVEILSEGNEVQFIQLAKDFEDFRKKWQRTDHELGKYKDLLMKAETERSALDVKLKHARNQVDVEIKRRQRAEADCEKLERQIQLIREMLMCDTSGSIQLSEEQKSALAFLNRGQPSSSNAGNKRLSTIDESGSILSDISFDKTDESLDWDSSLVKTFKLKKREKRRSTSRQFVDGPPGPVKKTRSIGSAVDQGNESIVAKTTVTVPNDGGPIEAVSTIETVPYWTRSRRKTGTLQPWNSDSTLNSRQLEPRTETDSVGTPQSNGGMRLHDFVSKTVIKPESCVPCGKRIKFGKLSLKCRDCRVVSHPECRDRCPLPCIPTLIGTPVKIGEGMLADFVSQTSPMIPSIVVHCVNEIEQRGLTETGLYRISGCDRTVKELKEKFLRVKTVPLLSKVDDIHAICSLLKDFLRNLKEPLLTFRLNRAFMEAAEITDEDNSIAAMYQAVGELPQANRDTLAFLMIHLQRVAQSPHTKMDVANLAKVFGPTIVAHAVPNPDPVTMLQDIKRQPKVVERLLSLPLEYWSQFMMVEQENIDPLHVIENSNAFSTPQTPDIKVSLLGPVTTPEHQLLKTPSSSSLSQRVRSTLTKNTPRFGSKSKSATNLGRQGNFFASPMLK

[13] = target: T7, Phosphomannomutase 2 (Homo sapiens, UniProt O15305); experiment: Counter screen SAR assay for PMM2 inhibitors via a fluorescence intensity assay. [Related pubchem assays (depositor defined):AID1545, AID1574]
T7 sequence (O15305 whole entry): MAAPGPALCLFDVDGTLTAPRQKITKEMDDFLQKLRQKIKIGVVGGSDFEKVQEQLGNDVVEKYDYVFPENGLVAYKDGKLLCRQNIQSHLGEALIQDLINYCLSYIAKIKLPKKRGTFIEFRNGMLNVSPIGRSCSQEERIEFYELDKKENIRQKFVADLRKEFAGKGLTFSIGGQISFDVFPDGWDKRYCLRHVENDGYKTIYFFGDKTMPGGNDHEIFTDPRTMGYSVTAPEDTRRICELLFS

[14] = target: T5, Voltage-gated N-type calcium channel alpha-1B subunit/Amyloid beta A4 precursor protein-binding family A member 1; type: protein assay; remark: listed apart in the source
[15] = target: Paired box protein Pax-8 (Homo sapiens, UniProt Q06710); experiment: PAX8 transcriptional activity inhibition in RMG-I – RMG-I cells, luciferase, cherry-pick, dose response (AID 687027); type: functional, cell-based;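 note: luciferase reporter driven by Pax8 target thyroperoxidase promoter measured by SteadyGlo luminescence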
[16] = off-target signal loss in HeLa-CEM21 co-culture – HeLa F-luc CTL cells, cherry-picked, counter-screen for HIV-1 Env fusion inhibitor project, dose response (AID 652040); type: functional, cell-based;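 note: potency for signal decrease marking cytotoxic or nonspecific inhibition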
[17] = test system: BJ; experiment: BJ-TERT-LT-ST fibroblast viability loss – cell-based, RAS-independent, luminescence, dose response (AID 1935); type: functional; conditions: Homo sapiens;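 note: BJ fibroblasts immortalized with TERT plus LT and ST oncogenes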
[18] = blockers of HIV-1 ZM109 envelope-driven cell-cell fusion – HeLa effector, CEM target cells, luciferase, cherry-pick, dose response (AID 652058); type: functional, cell-based;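 note: luciferase signal from HIV-1 Env mediated cell-cell fusion of effector and target cells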
[19] = Luminescence Cell-Based Dose Confirmation HTS to Identify Inhibitors of Platelet Dense Granule Release. [Related pubchem assays: 1663 (Primary HTS), 1678 (Summary of Project)]; type: functional
[20] = viability loss in CEM21 cells – cell-based, CellTiter-Glo luminescence, cherry-picked, cytotoxicity control for viral fusion inhibitor project, dose response (AID 652042); type: functional;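 note: potency for signal decrease meaning cytotoxicity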
[21] = DRD fibroblast viability loss – cell-based, non-viral oncogenic, luminescence, dose response (AID 1934); type: functional; conditions: Homo sapiens
[22] = test system: BJ; experiment: cells; type: functional, cell-based; conditions: Homo sapiens
[23] = general cell-killing toxicity readout – plate reader, dry powder samples, cytotoxicity control for PAX8 inhibitor project, dose response (AID 743021); type: functional, cell-based
[24] = blockers of HIV-1 envelope-mediated cell-cell fusion – cherry-pick, dose response (AID 652057); type: functional, cell-based
[25] = target: Luciferin 4-monooxygenase (Photinus pyralis, UniProt P08659); experiment: inhibition of purified Photinus pyralis luciferase – biochemical, luminescence, dose response (AID 1891)
[26] = HIV-1 AD8 envelope cell-cell fusion blockers – cherry-pick, dose response (AID 652062); type: functional, cell-based;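 note: luciferase signal from cell-cell fusion driven by HIV-1 clade B AD8 Env; potency is for inhibitors of fusion seen as a drop in luminescence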
[27] = test system: BJ; experiment: BJ-TERT fibroblast viability loss – cell-based, RAS-independent, luminescence, dose response (AID 1933); type: functional; conditions: Homo sapiens

T5 sequence (Q00975 whole entry): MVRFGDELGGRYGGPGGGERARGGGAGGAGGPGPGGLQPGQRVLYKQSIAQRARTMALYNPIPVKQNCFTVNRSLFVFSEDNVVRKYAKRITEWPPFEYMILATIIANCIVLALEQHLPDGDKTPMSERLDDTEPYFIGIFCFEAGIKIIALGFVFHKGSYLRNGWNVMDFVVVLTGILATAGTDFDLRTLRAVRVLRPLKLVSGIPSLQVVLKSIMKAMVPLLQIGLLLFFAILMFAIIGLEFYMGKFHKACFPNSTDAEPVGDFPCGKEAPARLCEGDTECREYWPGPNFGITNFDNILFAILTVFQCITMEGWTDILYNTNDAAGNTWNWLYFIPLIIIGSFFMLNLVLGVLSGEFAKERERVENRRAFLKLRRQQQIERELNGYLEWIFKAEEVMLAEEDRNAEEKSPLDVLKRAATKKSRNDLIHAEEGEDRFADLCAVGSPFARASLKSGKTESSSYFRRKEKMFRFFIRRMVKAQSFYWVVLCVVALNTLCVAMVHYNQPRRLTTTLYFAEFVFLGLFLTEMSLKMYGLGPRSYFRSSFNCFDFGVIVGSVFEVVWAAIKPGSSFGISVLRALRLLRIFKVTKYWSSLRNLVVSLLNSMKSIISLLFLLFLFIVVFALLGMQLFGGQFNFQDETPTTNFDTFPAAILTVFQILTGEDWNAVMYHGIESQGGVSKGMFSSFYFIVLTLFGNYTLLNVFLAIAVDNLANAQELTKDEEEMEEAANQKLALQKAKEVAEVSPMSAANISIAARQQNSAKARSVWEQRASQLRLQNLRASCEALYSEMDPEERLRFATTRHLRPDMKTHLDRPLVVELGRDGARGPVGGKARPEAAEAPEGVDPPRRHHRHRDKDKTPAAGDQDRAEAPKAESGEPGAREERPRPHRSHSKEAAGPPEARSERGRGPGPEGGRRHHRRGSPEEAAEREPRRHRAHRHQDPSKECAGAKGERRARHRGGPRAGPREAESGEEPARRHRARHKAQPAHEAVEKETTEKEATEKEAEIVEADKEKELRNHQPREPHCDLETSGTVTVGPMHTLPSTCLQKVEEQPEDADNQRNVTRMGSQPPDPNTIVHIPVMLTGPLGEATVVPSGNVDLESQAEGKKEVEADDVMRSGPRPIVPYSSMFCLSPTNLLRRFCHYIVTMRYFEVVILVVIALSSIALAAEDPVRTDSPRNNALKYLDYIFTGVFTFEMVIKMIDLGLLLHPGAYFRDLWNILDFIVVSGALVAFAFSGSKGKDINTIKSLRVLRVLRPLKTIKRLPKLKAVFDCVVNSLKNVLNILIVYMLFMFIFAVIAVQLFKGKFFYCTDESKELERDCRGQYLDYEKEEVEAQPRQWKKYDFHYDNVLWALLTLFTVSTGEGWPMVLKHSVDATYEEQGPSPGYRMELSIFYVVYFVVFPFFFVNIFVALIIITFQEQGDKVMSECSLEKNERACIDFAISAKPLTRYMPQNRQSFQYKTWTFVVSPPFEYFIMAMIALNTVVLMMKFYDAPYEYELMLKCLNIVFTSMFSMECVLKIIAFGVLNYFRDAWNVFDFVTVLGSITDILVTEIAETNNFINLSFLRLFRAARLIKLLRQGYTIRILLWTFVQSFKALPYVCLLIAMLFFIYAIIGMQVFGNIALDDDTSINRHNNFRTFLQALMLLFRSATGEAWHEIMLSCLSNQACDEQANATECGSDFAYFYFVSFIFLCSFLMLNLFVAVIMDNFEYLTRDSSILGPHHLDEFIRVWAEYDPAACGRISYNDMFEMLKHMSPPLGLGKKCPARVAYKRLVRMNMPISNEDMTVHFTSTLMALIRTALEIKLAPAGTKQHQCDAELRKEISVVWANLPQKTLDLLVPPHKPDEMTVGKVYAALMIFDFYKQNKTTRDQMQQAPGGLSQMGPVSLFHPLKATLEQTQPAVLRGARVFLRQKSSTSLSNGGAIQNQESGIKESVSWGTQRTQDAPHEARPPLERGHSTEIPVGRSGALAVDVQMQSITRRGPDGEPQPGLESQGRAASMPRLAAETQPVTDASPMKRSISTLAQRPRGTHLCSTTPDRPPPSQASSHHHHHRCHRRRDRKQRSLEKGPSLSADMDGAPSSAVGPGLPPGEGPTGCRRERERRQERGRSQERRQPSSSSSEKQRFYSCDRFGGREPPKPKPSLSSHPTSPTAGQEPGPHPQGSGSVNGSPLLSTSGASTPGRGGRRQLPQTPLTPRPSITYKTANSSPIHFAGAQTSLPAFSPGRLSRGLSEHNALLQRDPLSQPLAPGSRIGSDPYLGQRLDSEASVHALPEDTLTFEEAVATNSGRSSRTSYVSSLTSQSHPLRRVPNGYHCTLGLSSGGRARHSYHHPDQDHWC
T5 sequence (Q02410 whole entry): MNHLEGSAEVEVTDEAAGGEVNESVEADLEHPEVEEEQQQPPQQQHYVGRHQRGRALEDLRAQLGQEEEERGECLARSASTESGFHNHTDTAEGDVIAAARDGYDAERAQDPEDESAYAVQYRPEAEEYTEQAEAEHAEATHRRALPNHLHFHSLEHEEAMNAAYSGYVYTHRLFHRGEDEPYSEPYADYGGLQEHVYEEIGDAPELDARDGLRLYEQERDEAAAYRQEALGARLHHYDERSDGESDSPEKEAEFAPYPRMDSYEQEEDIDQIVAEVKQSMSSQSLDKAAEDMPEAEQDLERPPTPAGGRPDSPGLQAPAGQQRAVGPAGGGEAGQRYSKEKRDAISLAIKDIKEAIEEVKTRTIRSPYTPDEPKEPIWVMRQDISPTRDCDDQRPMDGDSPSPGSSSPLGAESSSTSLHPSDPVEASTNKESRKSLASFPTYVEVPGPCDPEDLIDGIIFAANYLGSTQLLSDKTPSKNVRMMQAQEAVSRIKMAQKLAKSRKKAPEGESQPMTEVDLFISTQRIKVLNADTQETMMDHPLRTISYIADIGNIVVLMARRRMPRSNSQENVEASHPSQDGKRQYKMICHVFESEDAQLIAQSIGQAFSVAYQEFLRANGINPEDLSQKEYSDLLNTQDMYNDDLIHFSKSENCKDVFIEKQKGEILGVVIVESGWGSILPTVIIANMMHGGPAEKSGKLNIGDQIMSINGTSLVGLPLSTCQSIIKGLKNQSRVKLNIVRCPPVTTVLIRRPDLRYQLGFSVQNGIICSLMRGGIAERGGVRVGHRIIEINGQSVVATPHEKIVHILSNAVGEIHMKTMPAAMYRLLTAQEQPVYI
Sequence of Luciferin 4-monooxygenase (P08659 whole entry, the tested form may be a part): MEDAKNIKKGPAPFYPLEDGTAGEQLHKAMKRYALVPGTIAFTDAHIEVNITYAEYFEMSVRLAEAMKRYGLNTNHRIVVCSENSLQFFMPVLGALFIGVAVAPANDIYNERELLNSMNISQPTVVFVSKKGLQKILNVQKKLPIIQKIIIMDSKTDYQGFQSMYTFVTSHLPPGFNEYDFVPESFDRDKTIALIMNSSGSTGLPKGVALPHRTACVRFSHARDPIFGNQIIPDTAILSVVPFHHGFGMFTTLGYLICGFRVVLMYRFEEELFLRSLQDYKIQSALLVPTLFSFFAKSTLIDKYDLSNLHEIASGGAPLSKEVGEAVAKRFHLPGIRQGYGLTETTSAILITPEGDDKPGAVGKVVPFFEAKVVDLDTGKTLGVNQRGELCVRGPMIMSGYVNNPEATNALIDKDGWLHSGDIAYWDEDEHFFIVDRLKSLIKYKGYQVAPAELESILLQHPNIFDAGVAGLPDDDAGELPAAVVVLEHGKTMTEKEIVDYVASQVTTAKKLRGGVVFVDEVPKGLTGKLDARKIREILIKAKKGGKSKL
Sequence of Paired box protein Pax-8 (Q06710 whole entry, the tested form may be a part): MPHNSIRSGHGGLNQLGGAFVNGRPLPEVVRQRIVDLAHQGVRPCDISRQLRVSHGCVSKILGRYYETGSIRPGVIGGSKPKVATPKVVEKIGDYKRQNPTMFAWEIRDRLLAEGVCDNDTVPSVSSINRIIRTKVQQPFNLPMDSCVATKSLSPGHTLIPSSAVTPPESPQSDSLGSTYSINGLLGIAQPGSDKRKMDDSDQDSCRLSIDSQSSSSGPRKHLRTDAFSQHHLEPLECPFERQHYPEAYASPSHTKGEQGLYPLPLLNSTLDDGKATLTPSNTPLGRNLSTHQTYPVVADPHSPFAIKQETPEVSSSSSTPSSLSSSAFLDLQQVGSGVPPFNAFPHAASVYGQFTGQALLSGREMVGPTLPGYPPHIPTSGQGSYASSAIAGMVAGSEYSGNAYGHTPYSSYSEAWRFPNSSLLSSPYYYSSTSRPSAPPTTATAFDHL
Sequence of Eukaryotic translation initiation factor 4E (P63073 whole entry): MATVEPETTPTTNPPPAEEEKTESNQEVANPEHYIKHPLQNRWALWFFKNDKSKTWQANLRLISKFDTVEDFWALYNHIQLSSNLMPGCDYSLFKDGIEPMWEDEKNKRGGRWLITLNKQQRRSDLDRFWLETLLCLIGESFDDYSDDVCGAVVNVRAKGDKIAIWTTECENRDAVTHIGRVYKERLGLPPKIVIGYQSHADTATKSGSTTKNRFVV

Structure (SMILES): CN(CCc1ccccn1)C(=O)CC1C(=O)NCCN1Cc1ccc(-c2ccccc2)cc1 (configuration not stated)
- EC50 [1]: 3.76 µM (active)

Structure (SMILES): CCOC(=O)c1ccccc1NC(=O)Cn1c(-c2nonc2N)nc2ccccc21
- IC50 [2]: > 80 µM (inactive)

Structure (SMILES): CCCn1ncc(CN2CCC(n3nccc3NC(=O)CCc3ccccc3)CC2)c1C
- EC50 [1]: 0.024 µM (active)

Structure (SMILES): COc1ccc(Nc2nc(-c3sc(C)nc3C)cs2)cc1
- IC50 [3]: > 80 µM (inactive)
- IC50 [2]: 49.6 µM (inactive)

Structure (SMILES): CCn1c(SCC(=O)Nc2cccnc2Cl)nnc1-c1ccccc1
- IC50 [4]: > 50 µM (inactive)

Structure (SMILES): CCOC(=O)CNC(=O)Cc1ccc(OC)cc1
- IC50 [4]: > 50 µM (inactive)

Structure (SMILES): Clc1nss/c1=N\c1ccc(Br)cc1
- CC50 [5]: 100 µM (active)
- Absolute IC50 (XBP1) [6]: < 10 µM
- AC50 [7]: 24.4 µM (active)
- IC50 [8]: 7.28 µM (active)
- IC50 [9]: 11.6 µM (active)
- IC50 [10]: 50 µM (inactive)
- IC50 [11]: > 50 µM (not active)
- IC50 [12]: 37.5 µM (active)
- IC50 [13]: > 100 µM (inactive)
- IC50 [14]: 4.16 µM (active)

Structure (SMILES): CN(C)CCNC(=O)c1scc2c1CCCC2
- EC50 [1]: 3.35 µM (active)

Structure (SMILES): O=C(O)c1ccc(N/N=C/c2ccc3c(c2)OCO3)cc1
- AC50 [15]: 3.04 µM (active)
- AC50 [16]: 4.15 µM (active)
- EC50 [17]: 24.2 µM (active)
- AC50 [18]: 9.48 µM (active)
- EC50 [19]: < 0.088 µM (active)
- AC50 [20]: 36.6 µM (active)
- IC50 [2]: > 80 µM (inactive)
- EC50 [21]: 8.19 µM (active)
- EC50 [22]: 8.37 µM (active)
- AC50 [23]: 27.7 µM (active)
- AC50 [24]: 2.44 µM (active)
- EC50 [25]: < 0.088 µM (active)
- AC50 [26]: 5.24 µM (active)
- EC50 [27]: 13.1 µM (active)
